Measurements from patent US11464770B2, “Anticancer pharmaceutical composition” (NATIONAL CANCER CENTER, priority 2016, dated 2022).
Read-outs that look alike come from different tables or passages of the source.

Assays:
brain cancer cell lines = test: Cell based assay, cell viability (CellTiter-Glo), brain cancer cell lines; conditions: Homo sapiens
Protocol: (§1) Commercially available bladder cancer, prostate cancer, lung cancer, breast cancer, blood cancer, pancreatic cancer, colorectal cancer, brain cancer, neuroblastoma, melanoma, liver cancer, cervical carcinoma, ovarian cancer, renal cancer, and papilloma cell lines were each treated with trypsin-EDTA and cultured, followed by being seeded in each well of a 96 well plate. […] The treated cells were additionally cultured for 72 hours, and cell viability was measured by using an ATP detection method (CellTiter-Glo® Luminescent Cell Viability Assay, Promega).

[1] = system: cervical carcinoma cell lines; test: Cell based assay, cell viability (CellTiter-Glo), cervical carcinoma cell lines; conditions: Homo sapiens; HeLa cells
Protocol: as §1

[2] = system: lung cancer cell lines (e.g. NCI-H23, NCI-H1229); test: Cell based assay, cell viability (CellTiter-Glo), lung cancer cell lines; conditions: Homo sapiens
Protocol: Commercially available bladder cancer, prostate cancer, lung cancer, breast cancer, blood cancer, pancreatic cancer, colorectal cancer, brain cancer, neuroblastoma, melanoma, liver cancer, cervical carcinoma, ovarian cancer, renal cancer, and papilloma cell lines were each treated with trypsin-EDTA and cultured, followed by being seeded in each well of a 96 well plate. After 24 hours of treatment at constant temperature, the respective cells were treated with the candidate compound so that a final concentration became 0 to 2 μM. The treated cells were additionally cultured for 72 hours, and cell viability was measured by using an ATP detection method (CellTiter-Glo® Luminescent Cell Viability Assay, Promega).

[3] = U138-MG, U-138 MG cell line, read-out: IC50, Brain cancer cell line U-138 MG
[4] = T98G cell line, read-out: IC50, Brain cancer cell line T98G
[5] = U-251 MG cell line, read-out: IC50, Brain cancer cell line U-251 MG
[6] = Lung cancer cell line A549, 72 hours, cell viability (CellTiter-Glo), read-out: IC50, A549
[7] = Lung cancer cell line DMS 114, 72 hours, cell viability (CellTiter-Glo), read-out: IC50, DMS 114
[8] = Lung cancer cell line NCI-H23, 72 hours, cell viability (CellTiter-Glo), read-out: IC50, NCI-H23
[9] = Lung cancer cell line NCI-H460, 72 hours, cell viability (CellTiter-Glo), read-out: IC50, NCI-H460
[10] = Lung cancer cell line NCI-H522, 72 hours, cell viability (CellTiter-Glo), read-out: IC50, NCI-H522
[11] = Lung cancer cell line NCI-H1299, 72 hours, cell viability (CellTiter-Glo), read-out: IC50, NCI-H1299
[12] = Lung cancer cell line NCI-H1437, 72 hours, cell viability (CellTiter-Glo), read-out: IC50, NCI-H1437
[13] = MRC-5 (listed under Lung cancer cell line), 72 hours, cell viability (CellTiter-Glo), read-out: IC50, MRC-5
[14] = A549 cells, 72 hours treatment, CellTiter-Glo, read-out: IC50, lung cancer cell line A549
[15] = DMS 114 cells, 72 hours treatment, CellTiter-Glo, read-out: IC50, lung cancer cell line DMS 114
[16] = MRC-5 cells, 72 hours treatment, CellTiter-Glo, read-out: IC50
[17] = NCI-H23 cells, 72 hours treatment, CellTiter-Glo, read-out: IC50, lung cancer cell line NCI-H23
[18] = NCI-H460 cells, 72 hours treatment, CellTiter-Glo, read-out: IC50, lung cancer cell line NCI-H460
[19] = NCI-H522 cells, 72 hours treatment, CellTiter-Glo, read-out: IC50, lung cancer cell line NCI-H522
[20] = NCI-H1299 cells, 72 hours treatment, CellTiter-Glo, read-out: IC50, lung cancer cell line NCI-H1299
[21] = NCI-H1437 cells, 72 hours treatment, CellTiter-Glo, read-out: IC50, lung cancer cell line NCI-H1437

Structure (SMILES)	IC50 (brain cancer cell lines; [3]) [nM]	IC50 (brain cancer cell lines; [4]) [nM]	IC50 (brain cancer cell lines; [5]) [nM]	IC50 [1] [nM]	IC50 [2, 6] [nM]	IC50 [2, 7] [nM]	IC50 [2, 8] [nM]	IC50 [2, 9] [nM]	IC50 [2, 10] [nM]	IC50 [2, 11] [nM]	IC50 [2, 12] [nM]	IC50 [2, 13] [nM]	IC50 [2, 14] [nM]	IC50 [2, 15] [nM]	IC50 [2, 16] [nM]	IC50 [2, 17] [nM]	IC50 [2, 18] [nM]	IC50 [2, 19] [nM]	IC50 [2, 20] [nM]	IC50 [2, 21] [nM]
CC(=O)c1c([S+]([O-])Cc2nonc2C)[nH]c2c(Br)ccc(Cl)c2c1=O (stereo not drawn) [Compound 106, 3-acetyl-8-bromo-5-chloro-2-(((4-methyl-1,2,5-oxadiazol-3-yl)methyl)sulfinyl)quinolin-4(1H)-one]	> 10000	> 10000	> 2000	> 2000	> 2000	> 2000	> 2000	> 2000	> 2000	> 2000	> 10000	> 2000								
CC(=O)c1c(SCc2cc(F)cc(F)c2)[nH]c2c(Br)ccc(Cl)c2c1=O [Compound 45, 3-acetyl-8-bromo-5-chloro-2-((3,5-difluorobenzyl)thio)quinolin-4(1H)-one]	> 10000	> 10000	> 2000	> 10000									> 2000	> 2000	> 2000	> 2000	> 2000	> 2000	> 2000	> 10000
CC(=O)c1c([S+]([O-])Cc2ccc(C(F)(F)F)nc2C)[nH]c2c(Br)ccc(Cl)c2c1=O (stereo not drawn) [Compound 102, 3-acetyl-8-bromo-5-chloro-2-(((2-methyl-6-(trifluoromethyl)pyridin-3-yl)methyl)sulfinyl)quinolin-4(1H)-one]	1240	> 10000	> 2000	> 2000	1640	> 2000	1260	1440	1490	1110	> 10000	1430								
CC(=O)c1c(S(=O)(=O)Cc2ccccc2)nc2c(Br)ccc(Cl)c2c1O [Compound 54, 1-(2-(benzylsulfonyl)-8-bromo-5-chloro-4-hydroxyquinolin-3-yl)ethan-1-one]	> 10000	> 10000	> 2000	> 10000									> 2000	> 2000	> 2000	> 2000	> 2000	> 2000	> 2000	> 10000
COc1cccc2[nH]c(SCc3ccc(S(F)(F)(F)(F)F)cc3)c(C(C)=O)c(=O)c12 [Compound 92, 3-acetyl-5-methoxy-2-((4-(pentafluoro--sulfanyl)benzyl)thio)quinolin-4(1H)-one]	> 10000	> 10000	> 2000	> 10000									> 2000	> 2000	> 2000	> 2000	> 2000	> 2000	> 2000	> 10000
CC(=O)c1c([S+]([O-])C(C)C)[nH]c2c(Br)ccc(Cl)c2c1=O (stereo not drawn) [Compound 25, 3-acetyl-8-bromo-5-chloro-2-(isopropylsulfinyl)quinolin-4(1H)-one]	> 10000	> 10000	> 2000	> 10000									> 2000	> 2000	> 2000	> 2000	> 2000	> 2000	> 2000	> 10000
COc1ccccc1Sc1[nH]c2c(Br)ccc(Cl)c2c(=O)c1C(C)=O [Compound 14, 3-acetyl-8-bromo-5-chloro-2-((2-methoxyphenyl)thio)quinolin-4(1H)-one]	> 10000	> 10000	> 2000	> 10000									> 2000	> 2000	> 2000	> 2000	> 2000	> 2000	> 2000	> 10000
CC(=O)c1c([S+]([O-])Cc2ccc(C#N)s2)[nH]c2c(Br)ccc(Cl)c2c1=O (stereo not drawn) [Compound 98, 5-(((3-acetyl-8-bromo-5-chloro-4-oxo-1,4-dihydroquinolin-2-yl)sulfinyl)methyl)thiophene-2-carbonitrile]	> 2000	> 10000	1250	> 2000									> 2000	> 2000	> 2000	1640	1680	> 2000	1810	> 10000
CC(=O)c1c(S/C=C\C(=O)O)[nH]c2c(Br)ccc(Cl)c2c1=O [Compound 67, (Z)-3-((3-acetyl-8-bromo-5-chloro-4-oxo-1,4-dihydroquinolin-2-yl)thio)acrylic acid]	> 10000	> 10000	> 2000	> 10000									> 2000	> 2000	> 2000	> 2000	> 2000	> 2000	> 2000	> 10000
CC(=O)c1c(SCc2cccc(C#N)c2)[nH]c2c(Br)ccc(Cl)c2c1=O [Compound 27, 3-(((3-acetyl-8-bromo-5-chloro-4-oxo-1,4-dihydroquinolin-2-yl)thio)methyl)benzonitrile]	> 10000	> 10000	> 2000	> 10000									> 2000	> 2000	> 2000	> 2000	> 2000	> 2000	> 2000	> 10000
CC(=O)c1c([S+](C)[O-])n(C(=O)c2ccc(Br)cc2)c2c(Br)ccc(Cl)c2c1=O (stereo not drawn) [Compound 9, 3-acetyl-8-bromo-1-(4-bromobenzoyl)-5-chloro-2-(methylsulfinyl)quinolin-4(1H)-one]	1260	> 10000	> 2000	> 10000									> 2000	> 2000	> 2000	900	> 2000	> 2000	1260	> 10000
CC(=O)c1c([S+]([O-])Cc2ccc(SC(F)(F)F)cc2)[nH]c2c(Cl)ccc(Cl)c2c1=O (stereo not drawn) [Compound 79, 3-acetyl-5,8-dichloro-2-((4-((trifluoromethyl)thio)benzyl)sulfinyl)quinolin-4(1H)-one]	> 10000	> 10000	> 2000	> 10000									> 2000	> 2000	> 2000	> 2000	> 2000	> 2000	> 2000	> 10000
CC(=O)c1c(SCc2cc(Cl)ccc2Cl)[nH]c2c(Br)ccc(Cl)c2c1=O [Compound 43, 3-acetyl-8-bromo-5-chloro-2-((2,5-dichlorobenzyl)thio)quinolin-4(1H)-one]	> 10000	> 10000	> 2000	> 10000									> 2000	> 2000	> 2000	> 2000	> 2000	> 2000	> 2000	> 10000
CC(=O)c1c([S+]([O-])Cc2ccc(S(F)(F)(F)(F)F)cc2F)[nH]c2c(Br)ccc(Cl)c2c1=O (stereo not drawn) [Compound 69, 3-acetyl-8-bromo-5-chloro-2-((2-fluoro-4-(pentafluoro-16-sulfanyl)benzyl)sulfinyl)quinolin-4(1H)-one]	1540	> 10000	1160	> 10000									1780	> 2000	1050	1130	1620	> 2000	1310	> 10000
CC(=O)c1c([S+](C)[O-])[nH]c2c(Br)ccc(Cl)c2c1=O (stereo not drawn) [Compound 1, 3-acetyl-8-bromo-5-chloro-2-(methylsulfinyl)quinolin-4(1H)-one]	> 2000	> 10000	> 2000	> 10000									> 2000	> 2000	1340	1340	> 2000	> 2000	1880	> 10000
CC(=O)c1c([S+]([O-])c2ccccc2)[nH]c2c(Br)ccc(Cl)c2c1=O (stereo not drawn) [Compound 13, 3-acetyl-8-bromo-5-chloro-2-(phenylsulfinyl)quinolin-4(1H)-one]	> 10000	> 10000	> 2000	> 10000									> 2000	> 2000	> 2000	> 2000	> 2000	> 2000	> 2000	> 10000
CC(=O)c1c(SCc2ccc(F)c(Cl)c2)[nH]c2c(Br)ccc(Cl)c2c1=O [Compound 30, 3-acetyl-8-bromo-5-chloro-2-((3-chloro-4-fluorobenzyl)thio)quinolin-4(1H)-one]	> 10000	> 10000	> 2000	> 10000									> 2000	> 2000	> 2000	> 2000	> 2000	> 2000	> 2000	> 10000
